US20210355104A1, “ADENOSINE RECEPTOR BINDING COMPOUNDS” (Nikang Therapeuticsm Inc., priority 2018, published 2021)
Several values for one entry are separate records, joined by “and”; a condition that tells them apart may be missing. Equal entries are not always repeated.

Biological target: Adenosine A2A receptor (Homo sapiens, UniProt P29274)
Assay: cAMP assay in 293A cells stably expressing the adenosine A2A receptor (CGS21680 stimulation, HTRF)
Format: cell-based
Design: expressed in transfected cells; host or cells: 293A cells (Invitrogen, Cat# R705-07) infected with A2A-expressing lentivirus (custom packaged by Biosettia), puromycin selected
Conditions: 293A-A2AR cells, 0.1% BSA, 1 uM CGS; read-out: cAMP (nM) 0.1% BSA, 1 uM CGS

Chain of Adenosine A2A receptor (P29274 whole entry): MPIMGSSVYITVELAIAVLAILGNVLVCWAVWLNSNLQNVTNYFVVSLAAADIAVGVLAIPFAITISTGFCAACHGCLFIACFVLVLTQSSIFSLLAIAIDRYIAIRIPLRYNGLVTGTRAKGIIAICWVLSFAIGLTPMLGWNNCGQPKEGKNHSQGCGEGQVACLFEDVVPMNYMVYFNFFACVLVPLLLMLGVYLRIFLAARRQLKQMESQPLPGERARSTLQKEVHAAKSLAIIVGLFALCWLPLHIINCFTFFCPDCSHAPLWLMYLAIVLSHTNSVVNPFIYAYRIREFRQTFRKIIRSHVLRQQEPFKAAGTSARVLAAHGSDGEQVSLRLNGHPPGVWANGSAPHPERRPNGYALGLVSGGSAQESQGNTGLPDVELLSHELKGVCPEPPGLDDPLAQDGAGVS

| IC50 | SMILES |
| --- | --- |
| 1350 nM | CCc1nnn(C[C@H](O)CO)c1COc1nc(N)nc(-c2ccc(F)cc2)c1-c1cc(C)nc(C(F)F)c1 [Example 318, (S)-3-(5-(((2-amino-5-(2-(difluoromethyl)-6-methylpyridin-4-yl)-6-(4-fluorophenyl)pyrimidin-4-yl)oxy)methyl)-4-ethyl-1H-1,2,3-triazol-1-yl)propane-1,2-diol] |
| 209 nM and 256 nM | Cc1cc(-c2c(OCc3cc4ccccc4n3C)nc(N)nc2-c2ccc(F)cc2)cc(C(F)F)n1 [Example 319, 5-(2-(difluoromethyl)-6-methylpyridin-4-yl)-4-(4-fluorophenyl)-6-((1-methyl-1H-indol-2-yl)methoxy)pyrimidin-2-amine] |
| 2290 nM | CCc1nn(CC(O)COC)nc1COc1nc(N)nc(-c2ccc(F)cc2)c1-c1cc(C)nc(C(F)F)c1 (stereo not shown) [Example 321, 1-(4-(((2-amino-5-(2-(difluoromethyl)-6-methylpyridin-4-yl)-6-(4-fluorophenyl)pyrimidin-4-yl)oxy)methyl)-5-ethyl-2H-1,2,3-triazol-2-yl)-3-methoxypropan-2-ol] |
| 2470 nM | CCc1nnn(CC(O)COC)c1COc1nc(N)nc(-c2ccc(F)cc2)c1-c1cc(C)nc(C(F)F)c1 (stereo not shown) [Example 322, 1-(5-(((2-amino-5-(2-(difluoromethyl)-6-methylpyridin-4-yl)-6-(4-fluorophenyl)pyrimidin-4-yl)oxy)methyl)-4-ethyl-1H-1,2,3-triazol-1-yl)-3-methoxypropan-2-ol] |
| 1680 nM | CCc1c(COc2nc(N)nc(-c3ccc(F)cc3)c2-c2cc(C)nc(C(F)F)c2)nnn1CC(O)COC (stereo not shown) [Example 323, 1-(4-(((2-amino-5-(2-(difluoromethyl)-6-methylpyridin-4-yl)-6-(4-fluorophenyl)pyrimidin-4-yl)oxy)methyl)-5-ethyl-1H-1,2,3-triazol-1-yl)-3-methoxypropan-2-ol] |
| 2080 nM | CCc1nn(CC(C)(C)C#N)nc1COc1nc(N)nc(-c2ccc(F)cc2)c1-c1cc(C)nc(C(F)F)c1 [Example 324, 3-(4-(((2-amino-5-(2-(difluoromethyl)-6-methylpyridin-4-yl)-6-(4-fluorophenyl)pyrimidin-4-yl)oxy)methyl)-5-ethyl-2H-1,2,3-triazol-2-yl)-2,2-dimethylpropanenitrile] |
| > 25000 nM | Cc1cc(-c2c(OCC3CC(C(=O)O)C3)nc(N)nc2-c2ccc(F)cc2)cc(C(F)F)n1 (stereo not shown) [Example 325, 3-(((2-amino-5-(2-(difluoromethyl)-6-methylpyridin-4-yl)-6-(4-fluorophenyl)pyrimidin-4-yl)oxy)methyl)cyclobutane-1-carboxylic acid] |
| 4390 nM | Cc1cc(-c2c(OCc3cccc(N(C)CC(=O)O)n3)nc(N)nc2-c2ccc(F)cc2)cc(C(F)F)n1 [Example 327, N-(6-(((2-amino-5-(2-(difluoromethyl)-6-methylpyridin-4-yl)-6-(4-fluorophenyl)pyrimidin-4-yl)oxy)methyl)pyridin-2-yl)-N-methylglycine] |
| 4510 nM | Cc1cc(-c2c(OCc3cccc(N(C)CCC(=O)O)n3)nc(N)nc2-c2ccc(F)cc2)cc(C(F)F)n1 [Example 328, 3-((6-(((2-amino-5-(2-(difluoromethyl)-6-methylpyridin-4-yl)-6-(4-fluorophenyl)pyrimidin-4-yl)oxy)methyl)pyridin-2-yl)(methyl)amino) propanoic acid] |
| 2550 nM | CCn1[nH]c(=O)cc1COc1nc(N)nc(-c2ccc(F)cc2)c1-c1cc(C)nc(C(F)F)c1 [Example 330, 5-(((2-amino-5-(2-(difluoromethyl)-6-methylpyridin-4-yl)-6-(4-fluorophenyl)pyrimidin-4-yl)oxy)methyl)-1-ethyl-1,2-dihydro-3H-pyrazol-3-one] |
| 648 nM | Cc1cc(-c2c(OCc3cc4ccccc4o3)nc(N)nc2-c2ccc(F)cc2)cc(C(F)F)n1 [Example 331, 4-(benzofuran-2-ylmethoxy)-5-(2-(difluoromethyl)-6-methylpyridin-4-yl)-6-(4-fluorophenyl)pyrimidin-2-amine] |
| > 5000 nM | CCn1c(COc2nc(N)nc(-c3ccc(F)cc3)c2-c2cc(C)nc(C(F)F)c2)nc2ccc(C(=O)O)cc21 [Example 332, 2-(((2-amino-5-(2-(difluoromethyl)-6-methylpyridin-4-yl)-6-(4-fluorophenyl)pyrimidin-4-yl)oxy)methyl)-1-ethyl-1H-benzo[d]imidazole-6-carboxylic acid] |
| > 5000 nM | CCn1c(COc2nc(N)nc(-c3ccc(F)cc3)c2-c2cc(C)nc(C(F)F)c2)nc2cc(C(=O)O)ccc21 [Example 333, 2-(((2-amino-5-(2-(difluoromethyl)-6-methylpyridin-4-yl)-6-(4-fluorophenyl)pyrimidin-4-yl)oxy)methyl)-1-ethyl-1H-benzo[d]imidazole-5-carboxylic acid] |
| 3170 nM | Cc1cc(-c2c(OCCn3ccc(C(=O)O)cc3=O)nc(N)nc2-c2ccc(F)cc2)cc(C(F)F)n1 [Example 334, 1-(2-((2-amino-5-(2-(difluoromethyl)-6-methylpyridin-4-yl)-6-(4-fluorophenyl)pyrimidin-4-yl)oxy)ethyl)-2-oxo-1,2-dihydropyridine-4-carboxylic acid] |
| > 25000 nM | Cc1cc(-c2c(OCCn3cccc(C(=O)O)c3=O)nc(N)nc2-c2ccc(F)cc2)cc(C(F)F)n1 [Example 335, 1-(2-((2-amino-5-(2-(difluoromethyl)-6-methylpyridin-4-yl)-6-(4-fluorophenyl)pyrimidin-4-yl)oxy)ethyl)-2-oxo-1,2-dihydropyridine-3-carboxylic acid] |
| > 25000 nM | Cc1cc(-c2c(OCCn3cc(C(=O)O)ccc3=O)nc(N)nc2-c2ccc(F)cc2)cc(C(F)F)n1 [Example 336, 1-(2-((2-amino-5-(2-(difluoromethyl)-6-methylpyridin-4-yl)-6-(4-fluorophenyl)pyrimidin-4-yl)oxy)ethyl)-6-oxo-1,6-dihydropyridine-3-carboxylic acid] |
| > 25000 nM | Cc1cc(-c2c(OCCOc3ncccc3C(=O)O)nc(N)nc2-c2ccc(F)cc2)cc(C(F)F)n1 [Example 337, 2-(2-((2-amino-5-(2-(difluoromethyl)-6-methylpyridin-4-yl)-6-(4-fluorophenyl)pyrimidin-4-yl)oxy)ethoxy)nicotinic acid] |
| 2890 nM | Cc1cc(-c2c(OCc3cccc(OCCC(C)(C)C(=O)O)n3)nc(N)nc2-c2ccc(F)cc2)cc(C(F)F)n1 [Example 338, 4-((6-(((2-amino-5-(2-(difluoromethyl)-6-methylpyridin-4-yl)-6-(4-fluorophenyl)pyrimidin-4-yl)oxy)methyl)pyridin-2-yl)oxy)-2,2-dimethylbutanoic acid] |
| 4080 nM | CCn1c(COc2nc(N)nc(-c3ccc(F)cc3)c2-c2cc(C)nc(C(F)F)c2)n[nH]c1=O [Example 340, 5-(((2-amino-5-(2-(difluoromethyl)-6-methylpyridin-4-yl)-6-(4-fluorophenyl)pyrimidin-4-yl)oxy)methyl)-4-ethyl-2,4-dihydro-3H-1,2,4-triazol-3-one] |
| 1400 nM | Cc1cc(-c2c(OCc3nc4ccccn4n3)nc(N)nc2-c2ccc(F)cc2)cc(C(F)F)n1 [Example 341, 4-([1,2,4]triazolo[1,5-a]pyridin-2-ylmethoxy)-5-(2-(difluoromethyl)-6-methylpyridin-4-yl)-6-(4-fluorophenyl)pyrimidin-2-amine] |
| 419 nM | Cc1cc(-c2c(OCc3nc4ccccc4o3)nc(N)nc2-c2ccc(F)cc2)cc(C(F)F)n1 [Example 342, 4-(benzo[d]oxazol-2-ylmethoxy)-5-(2-(difluoromethyl)-6-methylpyridin-4-yl)-6-(4-fluorophenyl)pyrimidin-2-amine] |
| 1340 nM | Cc1cc(-c2c(OCc3cc4ccccc4s3)nc(N)nc2-c2ccc(F)cc2)cc(C(F)F)n1 [Example 343, 4-(benzo[b]thiophen-2-ylmethoxy)-5-(2-(difluoromethyl)-6-methylpyridin-4-yl)-6-(4-fluorophenyl)pyrimidin-2-amine] |
| > 25000 nM | CCn1c(COc2nc(N)nc(-c3ccc(F)cc3)c2-c2cc(C)nc(C(F)F)c2)nc2cccc(C(=O)O)c21 [Example 344, 2-(((2-amino-5-(2-(difluoromethyl)-6-methylpyridin-4-yl)-6-(4-fluorophenyl)pyrimidin-4-yl)oxy)methyl)-1-ethyl-1H-benzo[d]imidazole-7-carboxylic acid] |
| 10300 nM | CCn1c(COc2nc(N)nc(-c3ccc(F)cc3)c2-c2cc(C)nc(C(F)F)c2)nc2c(C(=O)O)cccc21 [Example 345, 2-(((2-amino-5-(2-(difluoromethyl)-6-methylpyridin-4-yl)-6-(4-fluorophenyl)pyrimidin-4-yl)oxy)methyl)-1-ethyl-1H-benzo[d]imidazole-4-carboxylic acid] |
| 3990 nM | Cc1cc(-c2c(OCc3cc4c(s3)CCCC4)nc(N)nc2-c2ccc(F)cc2)cc(C(F)F)n1 [Example 346, 5-(2-(difluoromethyl)-6-methylpyridin-4-yl)-4-(4-fluorophenyl)-6-((4,5,6,7-tetrahydrobenzo[b]thiophen-2-yl)methoxy)pyrimidin-2-amine] |
| 634 nM | Cc1cc(-c2c(OCc3nc4ccccc4s3)nc(N)nc2-c2ccc(F)cc2)cc(C(F)F)n1 [Example 347, 4-(benzo[d]thiazol-2-ylmethoxy)-5-(2-(difluoromethyl)-6-methylpyridin-4-yl)-6-(4-fluorophenyl)pyrimidin-2-amine] |
| 2620 nM | Cc1cc(-c2c(OCCc3ccncc3)nc(N)nc2-c2ccc(F)cc2)cc(C(F)F)n1 [Example 348, 5-(2-(difluoromethyl)-6-methylpyridin-4-yl)-4-(4-fluorophenyl)-6-(2-(pyridin-4-yl)ethoxy)pyrimidin-2-amine] |
| 13100 nM | Cc1cc(-c2c(NCc3nc4ccccc4n3C)nc(N)nc2-c2ccc(F)cc2)cc(C(F)F)n1 [Example 351, 5-(2-(difluoromethyl)-6-methylpyridin-4-yl)-6-(4-fluorophenyl)-N^4-((1-methyl-1H-benzo[d]imidazol-2-yl)methyl)pyrimidine-2,4-diamine] |
